The values that follow come from patent US9549932B2, “2-(morpholin-4-yl)-1,7-naphthyridines” (BAYER PHARMA AKTIENGESELLSCHAFT, priority 2014, dated 2017).

Where a name gives a salt, the structure may show the parent alone. Read-outs that look alike come from different tables or passages of the source.

In this assay the target is full-length human ATR protein (Homo sapiens (Human), UniProt Q13535). The assay can be described thus: Binding assay ATR (TR-FRET tracer displacement). The conditions noted are these: TR-FRET. In short, it runs like this: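 Full-length human GST-ATR co-purified with ATRIP, pre-complexed 30 min at 22 °C with anti-GST-Tb antibody, then pre-bound with compound 10 min. Tracer A or B added (2 µl of 100 nM solution), 30 min at 22 °C.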
Chain of full-length human ATR protein (Q13535 other isoform, or with tags, fused parts or gaps): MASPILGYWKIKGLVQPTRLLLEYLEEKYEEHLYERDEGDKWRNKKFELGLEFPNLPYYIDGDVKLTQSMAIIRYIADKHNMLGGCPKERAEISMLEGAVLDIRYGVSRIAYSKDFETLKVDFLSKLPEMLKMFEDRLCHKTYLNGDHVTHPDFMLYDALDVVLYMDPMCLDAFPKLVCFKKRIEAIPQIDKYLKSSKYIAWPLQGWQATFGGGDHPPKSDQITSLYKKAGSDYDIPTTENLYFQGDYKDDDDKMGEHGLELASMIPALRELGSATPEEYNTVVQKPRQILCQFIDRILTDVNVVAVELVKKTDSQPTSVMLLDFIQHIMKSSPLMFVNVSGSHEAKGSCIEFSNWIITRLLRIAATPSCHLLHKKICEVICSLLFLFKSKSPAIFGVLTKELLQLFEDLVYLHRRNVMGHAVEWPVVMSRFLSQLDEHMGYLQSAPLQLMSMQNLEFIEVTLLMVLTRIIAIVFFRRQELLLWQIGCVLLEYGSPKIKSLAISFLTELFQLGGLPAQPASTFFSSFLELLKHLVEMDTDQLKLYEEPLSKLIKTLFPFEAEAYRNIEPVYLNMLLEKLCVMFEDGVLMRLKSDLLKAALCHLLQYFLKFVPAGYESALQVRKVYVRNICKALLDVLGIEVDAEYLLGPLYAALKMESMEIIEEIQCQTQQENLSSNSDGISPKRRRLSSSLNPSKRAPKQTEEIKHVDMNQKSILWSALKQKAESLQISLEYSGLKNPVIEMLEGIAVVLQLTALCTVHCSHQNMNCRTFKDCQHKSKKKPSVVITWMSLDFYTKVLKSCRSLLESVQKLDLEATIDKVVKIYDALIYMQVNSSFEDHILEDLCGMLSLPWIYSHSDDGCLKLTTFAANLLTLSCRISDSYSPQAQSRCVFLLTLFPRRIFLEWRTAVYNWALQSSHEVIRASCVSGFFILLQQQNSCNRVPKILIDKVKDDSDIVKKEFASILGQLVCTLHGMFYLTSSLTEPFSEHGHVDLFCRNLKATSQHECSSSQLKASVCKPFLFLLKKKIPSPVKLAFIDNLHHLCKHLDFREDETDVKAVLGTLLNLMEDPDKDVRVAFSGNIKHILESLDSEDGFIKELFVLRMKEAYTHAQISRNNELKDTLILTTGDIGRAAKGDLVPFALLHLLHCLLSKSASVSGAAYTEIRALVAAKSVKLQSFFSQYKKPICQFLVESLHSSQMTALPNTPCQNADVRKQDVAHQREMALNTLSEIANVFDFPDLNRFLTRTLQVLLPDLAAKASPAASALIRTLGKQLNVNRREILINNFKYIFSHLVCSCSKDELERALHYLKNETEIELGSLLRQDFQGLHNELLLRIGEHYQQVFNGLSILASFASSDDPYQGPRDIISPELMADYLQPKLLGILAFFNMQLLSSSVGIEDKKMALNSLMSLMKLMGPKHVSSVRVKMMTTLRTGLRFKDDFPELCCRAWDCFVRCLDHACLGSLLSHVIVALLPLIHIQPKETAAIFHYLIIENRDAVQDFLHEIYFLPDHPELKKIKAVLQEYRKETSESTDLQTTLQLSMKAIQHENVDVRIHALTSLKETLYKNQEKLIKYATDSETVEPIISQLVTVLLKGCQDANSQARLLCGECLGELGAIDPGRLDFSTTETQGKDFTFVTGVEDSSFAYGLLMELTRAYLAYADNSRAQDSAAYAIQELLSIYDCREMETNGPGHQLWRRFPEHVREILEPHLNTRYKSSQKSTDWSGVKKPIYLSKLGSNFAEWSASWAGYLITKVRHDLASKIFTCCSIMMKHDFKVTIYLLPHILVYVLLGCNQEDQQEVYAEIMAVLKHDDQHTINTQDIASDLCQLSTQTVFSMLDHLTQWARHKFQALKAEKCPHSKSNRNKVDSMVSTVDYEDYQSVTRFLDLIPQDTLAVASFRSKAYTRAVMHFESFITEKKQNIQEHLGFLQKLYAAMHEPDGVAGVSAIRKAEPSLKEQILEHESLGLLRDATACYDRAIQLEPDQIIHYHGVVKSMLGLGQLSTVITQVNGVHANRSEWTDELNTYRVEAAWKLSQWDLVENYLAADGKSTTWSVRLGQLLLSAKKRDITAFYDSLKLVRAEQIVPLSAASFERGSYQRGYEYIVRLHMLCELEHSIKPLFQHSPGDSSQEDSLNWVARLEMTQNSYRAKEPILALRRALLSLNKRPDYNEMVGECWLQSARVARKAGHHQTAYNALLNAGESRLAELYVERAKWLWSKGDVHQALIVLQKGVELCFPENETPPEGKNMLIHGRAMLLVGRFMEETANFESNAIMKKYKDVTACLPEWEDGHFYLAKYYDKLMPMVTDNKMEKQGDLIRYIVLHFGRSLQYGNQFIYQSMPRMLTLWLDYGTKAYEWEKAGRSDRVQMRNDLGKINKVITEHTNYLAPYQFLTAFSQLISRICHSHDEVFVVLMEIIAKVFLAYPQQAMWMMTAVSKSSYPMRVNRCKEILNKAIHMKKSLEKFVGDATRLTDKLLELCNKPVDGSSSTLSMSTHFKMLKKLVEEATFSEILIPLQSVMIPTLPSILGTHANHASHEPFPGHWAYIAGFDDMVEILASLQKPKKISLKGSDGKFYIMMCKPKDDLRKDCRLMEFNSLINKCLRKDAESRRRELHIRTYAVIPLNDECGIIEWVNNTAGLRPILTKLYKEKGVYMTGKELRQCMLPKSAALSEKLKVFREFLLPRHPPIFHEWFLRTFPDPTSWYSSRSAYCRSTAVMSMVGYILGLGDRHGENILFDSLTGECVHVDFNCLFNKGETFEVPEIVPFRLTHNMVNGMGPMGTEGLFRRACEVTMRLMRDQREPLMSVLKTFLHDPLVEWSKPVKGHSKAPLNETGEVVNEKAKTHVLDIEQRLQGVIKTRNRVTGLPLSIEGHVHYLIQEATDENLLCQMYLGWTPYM
Chain of full-length human ATR protein (Q8WXE1 other isoform, or with tags, fused parts or gaps partner): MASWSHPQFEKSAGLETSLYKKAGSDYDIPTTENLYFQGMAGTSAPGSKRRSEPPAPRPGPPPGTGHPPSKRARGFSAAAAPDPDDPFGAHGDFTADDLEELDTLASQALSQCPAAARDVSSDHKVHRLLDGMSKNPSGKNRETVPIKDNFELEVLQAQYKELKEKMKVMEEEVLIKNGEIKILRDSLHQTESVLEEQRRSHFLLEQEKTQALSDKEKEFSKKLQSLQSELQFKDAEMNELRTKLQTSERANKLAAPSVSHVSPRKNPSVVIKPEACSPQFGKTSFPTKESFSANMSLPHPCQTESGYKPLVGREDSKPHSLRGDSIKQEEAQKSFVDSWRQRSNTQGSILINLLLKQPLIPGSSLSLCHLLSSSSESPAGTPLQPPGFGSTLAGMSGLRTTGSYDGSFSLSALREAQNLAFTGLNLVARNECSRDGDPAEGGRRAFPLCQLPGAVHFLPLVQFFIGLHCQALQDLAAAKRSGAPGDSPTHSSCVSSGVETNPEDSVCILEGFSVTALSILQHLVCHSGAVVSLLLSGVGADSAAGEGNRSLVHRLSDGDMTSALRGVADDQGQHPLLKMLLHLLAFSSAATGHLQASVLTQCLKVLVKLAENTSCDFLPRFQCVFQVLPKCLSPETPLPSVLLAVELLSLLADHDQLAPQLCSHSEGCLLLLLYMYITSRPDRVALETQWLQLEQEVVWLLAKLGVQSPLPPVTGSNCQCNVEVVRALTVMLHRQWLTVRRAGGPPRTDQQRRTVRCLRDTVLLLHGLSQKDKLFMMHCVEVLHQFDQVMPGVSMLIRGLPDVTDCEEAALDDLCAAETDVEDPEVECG

[1] abbreviates: tracer A, read-out: ATR binding (tracer A) IC50.
Where [2] appears, read: tracer B, read-out: ATR binding (tracer B) IC50.

Consider `COc1ccc(-c2cc(N3CCOC[C@H]3C)nc3c(-c4ccn[nH]4)nccc23)cn1` [Example 95, 4-(6-methoxypyridin-3-yl)-2-[(3R)-3-methylmorpholin-4-yl]-8-(1H-pyrazol-5-yl)-1,7-naphthyridine], for which the IC50 under setting [1] turned out to be 11.3 nM. As for `CS(C)(=O)=Nc1cc(N2CCOCC2)nc2c(-c3ccn[nH]3)nccc12` [Example 65, 4-{[dimethyl(oxido)-λ^6-sulfanylidene]amino}-2-(morpholin-4-yl)-8-(1H-pyrazol-5-yl)-1,7-naphthyridine], the concentration for half-maximal inhibition (IC50) amounted to 335 nM under setting [1] and 276 nM under setting [2]. For the compound `c1cc(-c2cc(N3CCOCC3)nc3c(-c4ccn[nH]4)nccc23)c2cc[nH]c2c1` [Example 294, 4-(1H-indo1-4-yl)-2-(morpholin-4-yl)-8-(1H-pyrazol-5-yl)-1,7-naphthyridine], the IC50 under setting [1] turned out to be 37.2 nM.

Consider `C[C@@H]1COCCN1c1cc(-c2ccccc2N)c2ccnc(-c3ccn[nH]3)c2n1` [Example 71, 2-{2-[(3R)-3-methylmorpholin-4-yl]-8-(1H-pyrazol-5-yl)-1,7-naphthyridin-4-yl]aniline], for which the concentration for half-maximal inhibition (IC50) under setting [1] was 5.65 nM. For `C[C@@H]1COCCN1c1cc(-c2sccc2Cl)c2ccnc(-c3ccn[nH]3)c2n1` [Example 102, 4-(3-chloro-2-thienyl)-2-[(3R)-3-methylmorpholin-4-yl]-8-(1H-pyrazol-5-yl)-1,7-naphthyridine], the IC50 under setting [1] stood at 12.3 nM. In the case of `NC(=O)c1cc(N2CCOCC2)nc2c(-c3cc[nH]n3)nccc12` [Example 36, 2-morpholin-4-yl-8-(1H-pyrazol-3-yl)-[1,7]naphthyridine-4-carboxamide], under setting [1], the IC50 is 1500 nM. For the compound `c1ccc(-c2ccc(-c3cc(N4CCOCC4)nc4c(-c5ccn[nH]5)nccc34)cc2)cc1` [Example 331, 4-(biphenyl-4-yl)-2-(morpholin-4-yl)-8-(1H-pyrazol-5-yl)-1,7-naphthyridine], the IC50 under setting [1] was 376 nM. As for `Clc1ccc(-c2cc(N3CCOCC3)nc3c(-c4ccn[nH]4)nccc23)s1` [Example 299, 4-(5-chlorothiophen-2-yl)-2-(morpholin-4-yl)-8-(1H-pyrazol-5-yl)-1,7-naphthyridine], the IC50 under setting [1] came to 55.2 nM. On to `c1csc(-c2cc(N3CCOCC3)nc3c(-c4ccn[nH]4)nccc23)c1` [Example 371, 2-(morpholin-4-yl)-8-(1H-pyrazol-5-yl)-4-(thiophen-2-yl)-1,7-naphthyridine], for which the IC50 under setting [1] was determined as 122 nM. Take `c1coc(Cc2cc(N3CCOCC3)nc3c(-c4ccn[nH]4)nccc23)c1` [Example 310, 4-(furan-2-ylmethyI)-2-(morpholin-4-yl)-8-(1H-pyrazol-5-yl)-1,7-naphthyridine]: the 50% inhibitory concentration (IC50) under setting [1] stood at 97.7 nM.

As for `C[C@@H]1COCCN1c1cc(-c2ccn(C3CCOCC3)n2)c2ccnc(-c3ccn[nH]3)c2n1` [Example 246, 2-[(3R)-3-methylmorpholin-4-yl]-8-(1H-pyrazol-5-yl)-4-[1-(tetrahydro-2H-pyran-4-yl)-1H-pyrazol-3-yl]-1,7-naphthyridine], the concentration for half-maximal inhibition (IC50) under setting [1] was 68 nM.

For the compound `COc1ccc(F)c(-c2cc(N3CCOCC3)nc3c(-c4ccn[nH]4)nccc23)c1` [Example 338, 4-(2-fluoro-5-methoxyphenyl)-2-(morpholin-4-yl)-8-(1H-pyrazol-5-yl)-1,7-naphthyridine], the IC50 under setting [1] was 103 nM.

`Clc1cccc(-c2cc(N3CCOCC3)nc3c(-c4ccn[nH]4)nccc23)c1` [Example 304, 4-(3-chlorophenyl)-2-(morpholin-4-yl)-8-(1H-pyrazol-5-yl)-1,7-naphthyridine]: the IC50 under setting [1] was 57.2 nM. As for `CS(=O)(=O)N1CCN(c2cc(N3CCOCC3)nc3c(-c4ccn[nH]4)nccc23)CC1` [Example 434, 4-[4-(methylsulfonyl)piperazin-1-yl]-2-(morpholin-4-yl)-8-(1H-pyrazol-5-yl)-1,7-naphthyridine], the IC50 under setting [1] is 31.8 nM.

In the case of `Cc1nc(S(C)(=O)=O)ccc1-c1cc(N2CCOC[C@H]2C)nc2c(-c3ccn[nH]3)nccc12` [Example 73, 4-[2-methyl-6-(methylsulfonyl)pyridin-3-yl]-2-[(3R)-3-methylmorpholin-4-yl]-8-(1H-pyrazol-5-yl)-1,7-naphthyridine], the IC50 under setting [1] turned out to be 6.71 nM.

Turning to `O=C(NC1CC1)c1ccc(-c2cc(N3CCOCC3)nc3c(-c4ccn[nH]4)nccc23)cc1` [Example 291, N-cyclopropyl-4-[2-(morpholin-4-yl)-8-(1H-pyrazol-5-yl)-1,7-naphthyridin-4-yl]benzamide], the IC50 under setting [1] amounted to 83.7 nM. On to `c1cc2ccc(N3CCOCC3)nc2c(-c2cc[nH]n2)n1` [Example 61, 2-(morpholin-4-yl)-8-(1H-pyrazol-3-yl)-[1,7]naphthyridine hydrochloride], for which the half-inhibitory concentration (IC50) reads like this: under setting [1], 709 nM; under setting [2], 503 nM. Consider `CS(=N)(=O)c1cccc(-c2cc(N3CCOCC3)nc3c(-c4ccn[nH]4)nccc23)c1` (stereo not shown) [Example 19], for which the half-inhibitory concentration (IC50) reads like this: under setting [1], 293 nM; under setting [2], 181 nM.

Regarding `Cc1cccnc1-c1cc(N2CCOC[C@H]2C)nc2c(-c3ccn[nH]3)nccc12` [Example 165, 2-[(3R)-3-methylmorpholin-4-yl]-4-(3-methylpyridin-2-yl)-8-(1H-pyrazol-5-yl)-1,7-naphthyridine], under setting [1], the IC50 came to 224 nM. As for `COc1cccc(-c2cc(N3CCOCC3)nc3c(-c4ccn[nH]4)nccc23)c1OC` [Example 319, 4-(2,3-dimethoxyphenyl)-2-(morpholin-4-yl)-8-(1H-pyrazol-5-yl)-1,7-naphthyridine], the IC50 under setting [1] stood at 325 nM. For `Cc1cc(-c2cc(N3CCOCC3)nc3c(-c4ccn[nH]4)nccc23)n[nH]1` [Example 214, 4-(5-methyl-1H-pyrazol-3-yl)-2-(morpholin-4-yl)-8-(1H-pyrazol-5-yl)-1,7-naphthyridine], the IC50 under setting [1] is 176 nM. As for `CSCc1cc(N2CCOC[C@H]2C)nc2c(-c3ccn[nH]3)nccc12` [Example 186, 2-[(3R)-3-methylmorpholin-4-yl]-4-[(methylsulfanyl)methyl]-8-(1H-pyrazol-5-yl)-1,7-naphthyridine], under setting [1], the half-inhibitory concentration (IC50) stood at 67.4 nM. Same read-out and setting: then `COC1CCN(c2cc(N3CCOCC3)nc3c(-c4ccn[nH]4)nccc23)CC1` [Example 430, 4-(4-methoxypiperidin-1-yl)-2-(morpholin-4-yl)-8-(1H-pyrazol-5-yl)-1,7-naphthyridine], with 61.3 nM; and `CC(C)Oc1ncccc1-c1cc(N2CCOCC2)nc2c(-c3ccn[nH]3)nccc12` [Example 405, 2-(morpholin-4-yl)-4-[2-(propan-2-yloxy)pyridin-3-yl]-8-(1H-pyrazol-5-yl)-1,7-naphthyridine], with 419 nM. Regarding `C[C@@H]1COCCN1c1cc(-c2ccnn2C(C)(C)C)c2ccnc(-c3ccn[nH]3)c2n1` [Example 110, 4-(1-tert-butyl-1H-pyrazol-5-yl)-2-[(3R)-3-methylmorpholin-4-yl]-8-(1H-pyrazol-5-yl)-1,7-naphthyridine], the IC50 under setting [1] was 13.5 nM. For `CS(=N)(=O)CCCOc1cc(N2CCOCC2)nc2c(-c3ccn[nH]3)nccc12` (stereo not shown) [Example 42, 4-[3-(S-methylsulfonimidoyl)propoxy]-2-(morpholin-4-yl)-8-(1H-pyrazol-5-yl)-1,7-naphthyridine], the IC50 reads like this: under setting [1], 484 nM; under setting [2], 533 nM.

On to `OC1CCN(c2cc(N3CCOCC3)nc3c(-c4ccn[nH]4)nccc23)CC1` [Example 409, 1-[2-(morpholin-4-yl)-8-(1H-pyrazol-5-yl)-1,7-naphthyridin-4-yl]piperidin-4-ol], for which the IC50 under setting [1] turned out to be 139 nM. Turning to `COP(=O)(OC)c1ccc(-c2cc(N3CCOCC3)nc3c(-c4ccn[nH]4)nccc23)cc1` [Example 9, Dimethyl {4-[2-(morpholin-4-yl)-8-(1H-pyrazol-5-yl)-1,7-naphthyridin-4-yl]phenyl}phosphonate], the IC50 under setting [1] is 120 nM and the IC50 under setting [2] was found to be 127 nM.

For the compound `Cc1cc(-c2cc(N3CCOC[C@H]3C)nc3c(-c4ccn[nH]4)nccc23)on1` [Example 112, 2-[(3R)-3-methylmorpholin-4-yl]-4-(3-methyl-1,2-oxazol-5-yl)-8-(1H-pyrazol-5-yl)-1,7-naphthyridine], the IC50 under setting [1] turned out to be 4.74 nM. As to `CN=S(C)(=O)c1ccc(-c2cc(N3CCOCC3)nc3c(-c4ccn[nH]4)nccc23)cc1` (stereo not shown) [Example 5, 4-[4-(N,S-dimethylsulfonimidoyl)phenyl]-2-[morpholin-4-yl]-8-(1H-pyrazol-5-yl)-1,7-naphthyridine], the IC50 under setting [1] was 64.3 nM and the IC50 under setting [2] amounted to 34.1 nM.

Take `C[C@@H]1COCCN1c1cc(N(C)CC(C)(C)C)c2ccnc(-c3ccn[nH]3)c2n1` [Example 83, N-(2,2-dimethylpropyl)-N-methyl-2-[(3R)-3-methylmorpholin-4-yl]-8-(1H-pyrazol-5-yl)-1,7-naphthyridin-4-amine]: the IC50 under setting [1] turned out to be 5.38 nM.

Take `Cc1nn(C)cc1-c1cc(N2CCOCC2)nc2c(-c3ccn[nH]3)nccc12` [Example 271, 4-(1,3-dimethyl-1H-pyrazol-4-yl)-2-(morpholin-4-yl)-8-(1H-pyrazol-5-yl)-1,7-naphthyridine]: the IC50 under setting [1] is 41.6 nM. Regarding `Cc1cccc(-c2cc(N3CCOCC3)nc3c(-c4ccn[nH]4)nccc23)c1C` [Example 312, 4-(2,3-dimethylphenyl)-2-(morpholin-4-yl)-8-(1H-pyrazol-5-yl)-1,7-naphthyridine], under setting [1], the IC50 is 23.7 nM. For `C/C=C/c1cc(N2CCOCC2)nc2c(-c3ccn[nH]3)nccc12` [Example 325, 2-(morpholin-4-yl)-4-[(1E)-prop-1-en-1-yl]-8-(1H-pyrazol-5-yl)-1,7-naphthyridine], under setting [1], the IC50 came to 34.4 nM.

On to `CCS(=N)(=O)c1ccc(-c2cc(N3CCOCC3)nc3c(-c4ccn[nH]4)nccc23)cc1` (stereo not shown) [Example 12, 4-[4-(S-ethylsulfonimidoyl)phenyl]-2-(morpholin-4-yl)-8-(1H-pyrazol-5-yl)-1,7-naphthyridine], for which the IC50 is 135 nM under setting [1] and 47.2 nM under setting [2]. On to `C[C@@H]1COCCN1c1cc(-c2ccc(S(C)(=O)=O)cc2F)c2ccnc(-c3ccn[nH]3)c2n1` [Example 74, 4-[2-fluoro-4-(methylsulfonyl)phenyl]-2-[(3R)-3-methylmorpholin-4-yl]-8-(1H-pyrazol-5-yl)-1,7-naphthyridine], for which the IC50 under setting [1] is 7.1 nM.
